Data from US20190330224A1, “ACC INHIBITORS AND USES THEREOF” (Gilead Apollo, LLC, priority 2015, published 2019).
pIC50: −log10 of the molar value. In brackets after ≈: the same amount, converted by molar mass.

Key:
C. krusei ATCC 6258 = assay: Anti-Fungal Activity Assay (broth microtiter MIC), C. krusei; assay type: cell-based, Candida krusei; details: Pichia kudriavzevii, ATCC6258, 48 h, 3 replicates; MIC recorded at 48 h; read-out: MIC C. krusei ATCC 6258
Outline: (§1)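 MIC taken as visual growth inhibition versus the growth control, mostly at 48 h (soraphen also at 24 h). Following CLSI M27-A3, colonies grown overnight at 35° C on Sabouraud dextrose agar were suspended in RPMI 1640+MOPS; test agents came from 1 mg/mL DMSO stocks.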

[1] = test system: Collectotrichum graminicola (Cg); assay: Growth inhibition assay of fungal pathogens, Cg; assay type: cell-based; details: 48 hours; read-out: Concentration at 90% Inhibition, Cg
Outline: (§2)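 Spores in 17% V8 liquid medium were exposed to compound at final 50, 10 and 2 ppm or 2, 0.4 and 0.08 ppm with 2% DMSO. After 48 h, OD600 (blank-subtracted) and visual ratings were compared with the 2% DMSO control to give percent growth inhibition.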

Septoria tritici (St) = assay: Growth inhibition assay of fungal pathogens, St; assay type: cell-based; details: Zymoseptoria tritici; 48 hours; read-out: Concentration at 90% Inhibition, St
Outline: as §2

Human ACC2 = Human ACC2 (Homo sapiens, UniProt O00763); assay: In vitro ACC2 inhibition assay (ADP-Glo), human ACC2; assay type: biochemical; details: 5 nM ACC2, 20 μM ATP, 20 μM acetyl-CoA
[2] = test system: Fusarium moniliforme (Fm); assay: Growth inhibition assay of fungal pathogens, Fm; assay type: cell-based; details: Fusarium verticillioides; 48 hours; read-out: Concentration at 90% Inhibition, Fm
Outline: as §2

C. albicans ATCC 90028 = assay: Anti-Fungal Activity Assay (broth microtiter MIC), C. albicans; assay type: cell-based, Candida albicans; details: Candida albicans, ATCC90028, 48 h, 3 replicates; MIC recorded at 48 h; read-out: MIC C. albicans ATCC 90028
Outline: as §1

Rhizoctonia solani (Rs) = assay: Growth inhibition assay of fungal pathogens, Rs; assay type: cell-based; details: 48 hours, read-out: Concentration at 90% Inhibition, Rs
[3] = compound concentration 10 ppm, foliar spray, evaluated 7 days after inoculation
[4] = test system: C. parapsilosis ATCC 22019; assay: Anti-Fungal Activity Assay (broth microtiter MIC), C. parapsilosis; assay type: cell-based, Candida parapsilosis; details: Lodderomyces parapsilosis, ATCC22019, 48 h, 3 replicates; MIC recorded at 48 h; read-out: MIC C. parapsilosis ATCC 22019
Outline: as §1

Botrtyis cinerea (Bc) = assay: Growth inhibition assay of fungal pathogens, Bc; assay type: cell-based; details: 48 hours; read-out: Concentration at 90% Inhibition, Bc
Outline: as §2

[5] = test system: Phytophthora capsici (Pc); assay: Growth inhibition assay of fungal pathogens, Pc; assay type: cell-based; details: 48 hours, read-out: Concentration at 90% Inhibition, Pc
Outline: as §2

[6] = test system: Fusarium virguliforme (Fv); assay: Growth inhibition assay of fungal pathogens, Fv; assay type: cell-based; details: 48 hours, read-out: Concentration at 90% Inhibition, Fv
Outline: as §2

[7] = test system: Blumeria graminis f sp. hordei; assay: Foliar protection test, barley powdery mildew control; assay type: in vivo, Blumeria graminis f sp. hordei on Hordeum vulgare cv. Perry; details: 168 h, compound concentration 50 ppm, foliar spray, evaluated 7 days after inoculation, read-out: Barley Powdery Mildew Control at 50 ppm
Outline: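 Barley cv. Perry at first true leaf (6 days) sprayed to wetness on both leaf sides with compound in 5% acetone/0.005% Tween 80, typically at 200, 100, 50, 10 or 2 ppm. Inoculated 24 h later by shaking spores from colonized plants; kept at 20-22 °C, 70% RH. Mildew colonization scored 7 days later as percent control.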

Diplodia maydis (Dm) = assay: Growth inhibition assay of fungal pathogens, Dm; assay type: cell-based; details: Stenocarpella maydis; 48 hours; read-out: Concentration at 90% Inhibition, Dm
Outline: as §2

Fungal ACC2 = Fungal ACC2 (UniProt Q00955); details: read-out: Fungal ACC2 (IC50, in vitro ACC2 inhibition)
Chain of Fungal ACC2 (Q00955 whole entry): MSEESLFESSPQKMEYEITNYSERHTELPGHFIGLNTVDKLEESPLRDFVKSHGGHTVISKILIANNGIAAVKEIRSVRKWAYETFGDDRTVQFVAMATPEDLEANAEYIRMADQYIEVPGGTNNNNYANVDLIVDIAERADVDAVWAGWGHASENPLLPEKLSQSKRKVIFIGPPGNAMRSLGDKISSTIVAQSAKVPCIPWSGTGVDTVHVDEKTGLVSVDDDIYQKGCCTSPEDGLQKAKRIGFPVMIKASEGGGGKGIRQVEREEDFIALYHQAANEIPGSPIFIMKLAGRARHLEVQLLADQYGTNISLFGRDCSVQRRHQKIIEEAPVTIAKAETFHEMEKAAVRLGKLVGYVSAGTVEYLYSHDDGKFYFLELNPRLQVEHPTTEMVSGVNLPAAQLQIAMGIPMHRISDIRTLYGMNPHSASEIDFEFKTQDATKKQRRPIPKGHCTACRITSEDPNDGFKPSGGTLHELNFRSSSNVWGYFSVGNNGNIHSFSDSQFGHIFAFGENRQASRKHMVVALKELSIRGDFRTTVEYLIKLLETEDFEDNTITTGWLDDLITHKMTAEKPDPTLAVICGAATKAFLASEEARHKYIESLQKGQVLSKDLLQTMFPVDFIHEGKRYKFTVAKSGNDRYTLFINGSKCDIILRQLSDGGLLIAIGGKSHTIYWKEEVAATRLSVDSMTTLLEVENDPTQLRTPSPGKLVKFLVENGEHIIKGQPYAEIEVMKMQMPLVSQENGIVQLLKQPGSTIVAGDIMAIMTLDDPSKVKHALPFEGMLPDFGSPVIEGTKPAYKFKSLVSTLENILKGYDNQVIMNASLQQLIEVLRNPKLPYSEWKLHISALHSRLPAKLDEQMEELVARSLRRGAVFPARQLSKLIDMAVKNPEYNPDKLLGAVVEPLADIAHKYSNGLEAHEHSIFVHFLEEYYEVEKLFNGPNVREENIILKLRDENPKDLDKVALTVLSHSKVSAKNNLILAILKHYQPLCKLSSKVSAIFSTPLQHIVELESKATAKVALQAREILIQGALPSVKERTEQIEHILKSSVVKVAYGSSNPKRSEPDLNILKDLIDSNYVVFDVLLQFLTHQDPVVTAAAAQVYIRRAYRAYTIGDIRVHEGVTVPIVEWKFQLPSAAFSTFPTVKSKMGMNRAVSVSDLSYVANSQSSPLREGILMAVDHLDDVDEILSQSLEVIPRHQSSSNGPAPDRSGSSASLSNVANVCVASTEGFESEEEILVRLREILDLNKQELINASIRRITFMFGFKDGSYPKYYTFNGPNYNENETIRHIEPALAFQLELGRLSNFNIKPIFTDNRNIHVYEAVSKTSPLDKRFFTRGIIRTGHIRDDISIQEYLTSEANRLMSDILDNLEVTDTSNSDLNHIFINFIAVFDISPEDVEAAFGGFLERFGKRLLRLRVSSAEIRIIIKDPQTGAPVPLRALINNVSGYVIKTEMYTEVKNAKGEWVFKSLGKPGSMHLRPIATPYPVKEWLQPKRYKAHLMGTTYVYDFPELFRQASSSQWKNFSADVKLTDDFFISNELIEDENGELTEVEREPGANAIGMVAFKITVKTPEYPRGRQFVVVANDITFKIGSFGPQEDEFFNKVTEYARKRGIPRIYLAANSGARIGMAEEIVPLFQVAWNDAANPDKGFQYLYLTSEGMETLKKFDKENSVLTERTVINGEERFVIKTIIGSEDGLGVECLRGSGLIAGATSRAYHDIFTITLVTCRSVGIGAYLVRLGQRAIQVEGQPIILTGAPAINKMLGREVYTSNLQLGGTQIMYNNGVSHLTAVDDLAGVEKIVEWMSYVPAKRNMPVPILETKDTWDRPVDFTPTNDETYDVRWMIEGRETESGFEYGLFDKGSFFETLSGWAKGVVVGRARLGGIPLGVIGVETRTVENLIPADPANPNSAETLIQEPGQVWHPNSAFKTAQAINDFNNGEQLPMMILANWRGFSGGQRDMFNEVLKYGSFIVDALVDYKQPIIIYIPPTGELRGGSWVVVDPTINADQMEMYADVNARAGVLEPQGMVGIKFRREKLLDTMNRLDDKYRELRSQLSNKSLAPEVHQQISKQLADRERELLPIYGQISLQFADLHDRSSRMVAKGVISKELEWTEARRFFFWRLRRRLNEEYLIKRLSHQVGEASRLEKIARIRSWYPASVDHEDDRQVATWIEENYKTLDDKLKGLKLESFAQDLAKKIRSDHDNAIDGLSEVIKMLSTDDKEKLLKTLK

Chain of Human ACC2 (O00763 whole entry): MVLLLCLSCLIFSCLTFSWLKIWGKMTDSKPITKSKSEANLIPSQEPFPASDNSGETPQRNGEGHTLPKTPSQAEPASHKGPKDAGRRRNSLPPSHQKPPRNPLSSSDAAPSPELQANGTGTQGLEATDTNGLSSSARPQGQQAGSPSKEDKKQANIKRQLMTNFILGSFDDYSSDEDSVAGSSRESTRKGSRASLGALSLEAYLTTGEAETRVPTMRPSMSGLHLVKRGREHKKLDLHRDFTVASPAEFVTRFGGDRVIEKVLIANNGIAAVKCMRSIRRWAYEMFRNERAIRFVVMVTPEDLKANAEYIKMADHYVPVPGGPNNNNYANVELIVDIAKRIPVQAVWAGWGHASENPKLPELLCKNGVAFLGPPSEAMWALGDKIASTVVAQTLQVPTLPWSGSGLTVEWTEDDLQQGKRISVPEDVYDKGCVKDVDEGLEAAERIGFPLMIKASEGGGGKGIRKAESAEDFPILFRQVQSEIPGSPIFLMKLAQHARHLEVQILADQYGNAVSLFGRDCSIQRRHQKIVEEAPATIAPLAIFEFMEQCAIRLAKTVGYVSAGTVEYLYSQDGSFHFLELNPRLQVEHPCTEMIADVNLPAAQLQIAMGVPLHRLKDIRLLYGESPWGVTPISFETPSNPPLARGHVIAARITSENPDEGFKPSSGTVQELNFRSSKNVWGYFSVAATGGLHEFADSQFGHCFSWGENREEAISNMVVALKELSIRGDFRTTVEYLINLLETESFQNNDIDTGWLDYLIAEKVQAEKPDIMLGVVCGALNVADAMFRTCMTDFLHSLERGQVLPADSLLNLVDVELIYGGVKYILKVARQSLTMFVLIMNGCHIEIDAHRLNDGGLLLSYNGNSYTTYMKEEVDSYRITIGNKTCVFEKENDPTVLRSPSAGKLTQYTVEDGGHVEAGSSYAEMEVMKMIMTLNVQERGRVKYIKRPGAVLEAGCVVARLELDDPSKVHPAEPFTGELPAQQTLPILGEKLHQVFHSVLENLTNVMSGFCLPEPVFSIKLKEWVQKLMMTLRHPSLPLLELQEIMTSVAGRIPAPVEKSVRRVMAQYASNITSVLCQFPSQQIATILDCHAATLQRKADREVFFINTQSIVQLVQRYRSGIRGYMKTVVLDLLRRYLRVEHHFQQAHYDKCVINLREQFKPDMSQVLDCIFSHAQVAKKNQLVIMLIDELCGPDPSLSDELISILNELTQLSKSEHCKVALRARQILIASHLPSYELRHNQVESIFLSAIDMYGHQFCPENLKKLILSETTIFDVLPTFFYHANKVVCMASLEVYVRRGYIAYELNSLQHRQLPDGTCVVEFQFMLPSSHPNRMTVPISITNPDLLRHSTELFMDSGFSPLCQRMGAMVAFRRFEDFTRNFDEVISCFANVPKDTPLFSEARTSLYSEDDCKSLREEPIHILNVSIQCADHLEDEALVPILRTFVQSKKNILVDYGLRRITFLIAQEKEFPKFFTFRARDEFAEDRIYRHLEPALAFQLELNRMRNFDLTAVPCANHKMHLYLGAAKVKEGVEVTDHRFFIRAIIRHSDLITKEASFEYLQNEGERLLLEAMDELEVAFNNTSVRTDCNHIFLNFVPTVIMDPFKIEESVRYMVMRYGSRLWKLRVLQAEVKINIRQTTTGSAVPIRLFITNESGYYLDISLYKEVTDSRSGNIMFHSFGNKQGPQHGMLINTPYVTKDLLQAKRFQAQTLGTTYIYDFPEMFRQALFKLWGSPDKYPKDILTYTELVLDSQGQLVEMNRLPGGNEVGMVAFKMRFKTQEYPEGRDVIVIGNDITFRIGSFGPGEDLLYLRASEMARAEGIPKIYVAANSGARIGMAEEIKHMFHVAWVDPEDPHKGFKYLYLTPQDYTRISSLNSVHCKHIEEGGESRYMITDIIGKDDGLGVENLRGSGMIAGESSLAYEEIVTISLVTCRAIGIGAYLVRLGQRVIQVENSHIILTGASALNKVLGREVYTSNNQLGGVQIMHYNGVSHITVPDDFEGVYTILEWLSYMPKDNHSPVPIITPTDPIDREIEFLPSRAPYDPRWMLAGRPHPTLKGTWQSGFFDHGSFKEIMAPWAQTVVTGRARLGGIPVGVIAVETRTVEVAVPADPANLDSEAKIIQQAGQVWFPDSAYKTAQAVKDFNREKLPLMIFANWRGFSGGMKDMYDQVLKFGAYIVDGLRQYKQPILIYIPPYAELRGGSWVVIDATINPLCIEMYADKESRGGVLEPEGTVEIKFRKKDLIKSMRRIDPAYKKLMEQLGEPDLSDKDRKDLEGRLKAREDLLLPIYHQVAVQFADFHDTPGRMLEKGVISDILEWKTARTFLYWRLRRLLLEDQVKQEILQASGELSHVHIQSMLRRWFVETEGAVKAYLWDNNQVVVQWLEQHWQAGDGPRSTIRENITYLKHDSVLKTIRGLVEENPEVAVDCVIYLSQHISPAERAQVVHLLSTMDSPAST

| SMILES | MIC (C. krusei ATCC 6258) [µg/mL] | IC90 [1] [µg/mL] | IC90 (Septoria tritici (St)) [µg/mL] | pIC50 (Human ACC2) | IC90 [2] [µg/mL] | MIC (C. albicans ATCC 90028) [µg/mL] | IC90 (Rhizoctonia solani (Rs)) [µg/mL] | Barley Powdery Mildew Control at 10 ppm [3] | MIC [4] [µg/mL] | IC90 (Botrtyis cinerea (Bc)) [µg/mL] | IC90 [5] [µg/mL] | IC90 [6] [µg/mL] | pest or weed control at 50 ppm [7] [%] | IC90 (Diplodia maydis (Dm)) [µg/mL] | pIC50 (Fungal ACC2) |
| --- | --- | --- | --- | --- | --- | --- | --- | --- | --- | --- | --- | --- | --- | --- | --- |
| COc1ccc(F)cc1[C@H](Cn1c(=O)n([C@H]2CCNC2=O)c(=O)c2c(C)c(-n3nccn3)sc21)OCCC#N [Compound I-106, 3-((R)-1-(5-fluoro-2-methoxyphenyl)-2-(5-methyl-2,4-dioxo-3-((S)-2-oxopyrrolidin-3-yl)-6-(2H-1,2,3-triazol-2-yl)-3,4-dihydrothieno[2,3-d]pyrimidin-1(2H)-yl)ethoxy)propanenitrile] | 2.1 to 4 (≈ 3.79 to 7.23 µM) | > 50 | > 50 | 7.00 to 8.00 | 2 (≈ 3.61 µM) | 2.1 to 4 (≈ 3.79 to 7.23 µM) | 2 (≈ 3.61 µM) | D (provided a compound having <25% control of barley powdery mildew) | 2.1 to 4 (≈ 3.79 to 7.23 µM) | 2 (≈ 3.61 µM) | > 50 | 10 (≈ 18.1 µM) | 25 to 49 | > 50 | 8.70 to 9.15 |
| COc1ccc(F)cc1[C@H](Cn1c(=O)n([C@H]2CCCNC2=O)c(=O)c2c(C)c(-n3nccn3)sc21)OCCC#N [Compound I-110, 3-((R)-1-(5-fluoro-2-methoxyphenyl)-2-(5-methyl-2,4-dioxo-3-((S)-2-oxopiperidin-3-yl)-6-(2H-1,2,3-triazol-2-yl)-3,4-dihydrothieno[2,3-d]pyrimidin-1 (2H)-yl)ethoxy)propanenitrile] | 2.1 to 4 (≈ 3.7 to 7.05 µM) | 10 (≈ 17.6 µM) | > 50 | 7.00 to 8.00 | 2 (≈ 3.52 µM) | 2.1 to 4 (≈ 3.7 to 7.05 µM) | 2 (≈ 3.52 µM) | D (provided a compound having <25% control of barley powdery mildew) | 2.1 to 4 (≈ 3.7 to 7.05 µM) | 2 (≈ 3.52 µM) | > 50 | 10 (≈ 17.6 µM) | 50 to 69 | > 50 | 8.70 to 9.15 |
| COc1ccc(F)cc1[C@H](Cn1c(=O)n([C@@H]2CCCNC2=O)c(=O)c2c(C)c(-n3nccn3)sc21)OCCC#N [Compound I-111, 3-((R)-1-(5-fluoro-2-methoxyphenyl)-2-(5-methyl-2,4-dioxo-3-((R)-2-oxopiperidin-3-yl)-6-(2H-1,2,3-triazol-2-yl)-3,4-dihydrothieno[2,3-d]pyrimidin-1(2H)-yl)ethoxy)propanenitrile] | 2.1 to 4 (≈ 3.7 to 7.05 µM) | 10 (≈ 17.6 µM) | > 50 | 8.00 to 8.70 | 2 (≈ 3.52 µM) | 2.1 to 4 (≈ 3.7 to 7.05 µM) | 2 (≈ 3.52 µM) | C (provided a compound having from 25 to 49% control of barley powdery mildew) | 2.1 to 4 (≈ 3.7 to 7.05 µM) | 2 (≈ 3.52 µM) | > 50 | 10 (≈ 17.6 µM) | 50 to 69 | 10 (≈ 17.6 µM) | 8.70 to 9.15 |
